This passage reports TGI and GI50 results from PubChem BioAssay (NCI).

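A five-concentration, 48-hour dose response in 96-well plates underlies each endpoint, interpolated linearly between surrounding concentrations. At the GI50, growth is halved. TGI marks complete inhibition of growth.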 Some results are limits rather than exact numbers.

The first experiment relates to HL-60(TB) leukemia. In words: NCI-60 cell line screen, 48 h.
As for `Nc1ccnc(=O)[nH]1`, the TGI is greater than 100 µM.

Compound `COC(=O)/C(C)=C(/CCC1(C)OCCO1)O[Si](C)(C)C` gave a TGI greater than 100 µM.

`CCOC(=O)N1CCN(C=S)CC1` gave a TGI greater than 100 µM.

On to `CCc1cc(C(=O)OC)cn1C(=N)c1ccc(Cl)cc1`, for which the TGI is greater than 100 µM.

On to `Cc1cc(=O)n(-c2ccccc2C)c(C)n1`, for which the TGI is greater than 100 µM.

`Oc1c(C(Nc2cccc3cccnc23)c2ccccc2)ccc2cccnc12` (stereo unspecified): the TGI is 7.58 µM.

For the compound `COc1ccc(Br)c(N/N=C2\CCCNC2=O)c1`, the TGI is greater than 100 µM.

As to `COc1cc2c(c(OC)c1OC)-c1ccc(SC)c(=O)cc1C(CO)C2` (stereo unspecified), the GI50 is less than 0.01 µM and the TGI was found to be 0.0439 µM.

Take `COc1cnc2c(c1)C(=O)c1c-2n(CCCn2ccnc2)c(=O)c2cc(F)ccc12`: the GI50 is 0.0363 µM and the TGI turned out to be 0.311 µM.

In the case of `O=C([CH-]C(=O)c1ccccc1)c1ccccc1.O=C([CH-]C(=O)c1ccccc1)c1ccccc1.[La+3].[OH-].[OH3+]`, the GI50 is 3.87 µM and the TGI was 22.7 µM.

`CN(CCCn1c2c(c3ccccc3c1=O)C(=O)c1ccccc1-2)CCCn1c2c(c3ccccc3c1=O)C(=O)c1ccccc1-2`: the GI50 was 3.65 µM and the TGI was 12.6 µM.

On to `CCC[CH2][Sn]1([CH2]CCC)[O]C(=O)c2cccnc2[O]1`, for which the GI50 was 1.34 µM and the TGI stood at 3.99 µM.

Consider `COC1CC(OS(=O)(=O)c2ccc([N+](=O)[O-])cc2)C(OC(=O)c2ccccc2)C(C)O1` (stereo unspecified), for which the TGI was greater than 100 µM.

For `CCOc1ccccc1N1C(=O)C(=O)C(c2nc3ccccc3o2)C(=O)C1=O`, the TGI is greater than 100 µM.

For `C=C1C(=O)O[C@H]2[C@H]1CC/C(COC(=O)NCc1cn(C)c3ccccc13)=C\CC[C@@]1(C)O[C@@H]21`, the GI50 is 0.49 µM and the TGI is 2.86 µM.

In the case of `CCS(CC)(CC)CC1CCCC2=CCC(P(=O)(c3ccccc3)c3ccccc3)CC21` (stereo unspecified), the TGI stood at 12.3 µM.

Compound `COc1ccc2n[se]nc2c1` gave a TGI greater than 100 µM.

Take `Cn1cc(C(=O)NCCC(=N)N)cc1NC(=O)C1=[N+](C)C=C(NC(=O)c2cccc(C(=O)NC3=CC(C(=O)Nc4cc(C(=O)NCCC(=N)N)cn4C)=[N+](C)C3)c2)C1`: the TGI is greater than 100 µM.

The test system of a further experiment is HT29 colon. In words: NCI-60 cell line screen, 48 h.
`CCN(CC)c1c(C(=O)/C=C/c2ccc(OC)cc2)c(-c2ccccc2)nn(C)c1=O` returned a TGI of 41.3 µM.

As for `CN1C(=Nc2ccccc2)SC1=Nc1ccccc1`, the TGI is greater than 100 µM.

`Oc1ccccc1/C=C/c1csnn1`: the TGI was greater than 100 µM.

The compound `CC(=O)CC(=O)OC1CC(C)CCC1C(C)C` (stereo unspecified) returned a TGI greater than 100 µM.

In turn, `CP1(=O)CCCCC1` displayed a TGI greater than 100 µM.

In turn, `Cc1ccc(S(=O)(=O)OC2CSS(=O)CC2OS(=O)(=O)c2ccc(C)cc2)cc1` (stereo unspecified) came in with a TGI of 87.5 µM.

On to `O=[N+]([O-])c1cc(C(F)(F)F)cc([N+](=O)[O-])c1CCl`, for which the TGI turned out to be 4.03 µM.

Compound `Nc1ccnc(=O)[nH]1` came in with a TGI greater than 100 µM.

As for `COC(=O)/C(C)=C(/CCC1(C)OCCO1)O[Si](C)(C)C`, the TGI is greater than 100 µM.

For `COc1cc(C(=O)O[C@H](C(=O)NCCCCCNC(=O)[C@@H](OC(=O)c2cc(OC)cc3c(C)cccc23)[C@]2(C)CO2)[C@]2(C)CO2)c2cccc(C)c2c1`, the GI50 is 0.182 µM and the TGI was greater than 100 µM.

Take `CCOC(=O)N1CCN(C=S)CC1`: the TGI was greater than 100 µM.

For `CCc1cc(C(=O)OC)cn1C(=N)c1ccc(Cl)cc1`, the TGI was greater than 100 µM.

`Cc1cc(=O)n(-c2ccccc2C)c(C)n1`: the TGI is greater than 100 µM.

Take `COc1ccc(Br)c(N/N=C2\CCCNC2=O)c1`: the TGI is greater than 100 µM.

In turn, `COc1cc2c(c(OC)c1OC)-c1ccc(SC)c(=O)cc1C(CO)C2` (stereo unspecified) showed a TGI of 0.385 µM.

As to `COc1cc([N+](=O)[O-])c(OC)cc1-c1nc2sc(Cl)cn2c1/C(N)=N/C(=N)N`, the GI50 is 3.02 µM and the TGI is greater than 100 µM.

The compound `Cc1ccc2nc(NC(=O)C(=O)C(C#N)c3nc4ccccc4s3)sc2c1` (stereo unspecified) had a TGI greater than 100 µM.

Turning to `CC(C)C1CC[C@@H](C)C[C@@]1(O)CC(N)=O` (stereo partly specified), the TGI is greater than 100 µM.

For `COc1cnc2c(c1)C(=O)c1c-2n(CCCn2ccnc2)c(=O)c2cc(F)ccc12`, the GI50 is 0.013 µM and the TGI was determined as 0.226 µM.

In the case of `O=C([CH-]C(=O)c1ccccc1)c1ccccc1.O=C([CH-]C(=O)c1ccccc1)c1ccccc1.[La+3].[OH-].[OH3+]`, the GI50 is 19.4 µM and the TGI came out at 50.1 µM.

Take `CCC[CH2][Sn]1([CH2]CCC)[O]C(=O)c2cccnc2[O]1`: the GI50 is 5.97 µM and the TGI was determined as 19.5 µM.

Consider `COC1CC(OS(=O)(=O)c2ccc([N+](=O)[O-])cc2)C(OC(=O)c2ccccc2)C(C)O1` (stereo unspecified), for which the TGI is greater than 100 µM.

On to `CCOc1ccccc1N1C(=O)C(=O)C(c2nc3ccccc3o2)C(=O)C1=O`, for which the TGI is greater than 100 µM.

`C=C1C(=O)O[C@H]2[C@H]1CC/C(COC(=O)NCc1cn(C)c3ccccc13)=C\CC[C@@]1(C)O[C@@H]21`: the GI50 was 1.22 µM and the TGI was determined as 3 µM.

Consider `CCS(CC)(CC)CC1CCCC2=CCC(P(=O)(c3ccccc3)c3ccccc3)CC21` (stereo unspecified), for which the TGI came out at 22.8 µM.

With `COc1ccc2n[se]nc2c1`, the TGI is greater than 100 µM.

As to `Cn1cc(C(=O)NCCC(=N)N)cc1NC(=O)C1=[N+](C)C=C(NC(=O)c2cccc(C(=O)NC3=CC(C(=O)Nc4cc(C(=O)NCCC(=N)N)cn4C)=[N+](C)C3)c2)C1`, the TGI was greater than 100 µM.

A further experiment relates to KM12 colon. In words: NCI-60 cell line screen, 48 h.
In turn, `CCN(CC)c1c(C(=O)/C=C/c2ccc(OC)cc2)c(-c2ccccc2)nn(C)c1=O` yielded a TGI of 37.1 µM.

The compound `CN1C(=Nc2ccccc2)SC1=Nc1ccccc1` registered a TGI greater than 100 µM.

In the case of `Oc1ccccc1/C=C/c1csnn1`, the TGI was greater than 100 µM.

As to `CC(=O)CC(=O)OC1CC(C)CCC1C(C)C` (stereo unspecified), the TGI was greater than 100 µM.

The compound `CP1(=O)CCCCC1` gave a TGI greater than 100 µM.

Turning to `Cc1ccc(S(=O)(=O)OC2CSS(=O)CC2OS(=O)(=O)c2ccc(C)cc2)cc1` (stereo unspecified), the TGI was determined as 31.3 µM.

The compound `O=[N+]([O-])c1cc(C(F)(F)F)cc([N+](=O)[O-])c1CCl` registered a TGI of 4.92 µM.

Turning to `Nc1ccnc(=O)[nH]1`, the TGI was greater than 100 µM.

The compound `COC(=O)/C(C)=C(/CCC1(C)OCCO1)O[Si](C)(C)C` registered a TGI greater than 100 µM.
